Results: ChEMBL document CHEMBL5380844, “Discovery of a Novel, Potent, Orally Active, and Safe Inhibitor Targeting Human Mitochondrial RNA Polymerase” (J Med Chem, 2023)
pIC50: −log10 of the molar value. Active and inactive are the calls of the source. The rule behind the calls is not given here.

Columns and labels:
A2780 [1] = assay: Induction of apoptosis in human A2780 cells assessed as viable cells at 100 nM incubated for 96 hrs by Annexin-V/FITC and PI staining based flow cytometry analysis (reference value: 89.2%); format: functional; conditions: read-out: Activity
[2] = Toxicity in Balb/c mouse assessed as effect on body weight loss at 50 to 100 mg/kg, po measured after 27 days; format: organism-based; conditions: in vivo, 648 h, dose 50-100 mg/kg, time 27 day
A2780 [3] = assay: Inhibition of colony formation in human A2780 cells at 500 nM incubated for 14 days by crystal violet staining based analysis; format: functional, cell-based; conditions: time 14.0 day
[4] = Cmax in ICR mouse at 10 mg/kg, po measured upto 24 hrs by LC-MS/MS analysis; format: ADME, organism-based; set-up: time < 24 hrs, dose 10 mg/kg, route po; conditions: in vivo
A2780 [5] = assay: Induction of autophagy in human A2780 cells assessed as change in MDC labeled fluorescence at upto 500 nM measured after 96 hrs by microscopic analysis; format: functional, cell-based
[6] = MRT in ICR mouse at 1 mg/kg, iv measured upto 24 hrs by LC-MS/MS analysis; format: ADME, organism-based; conditions: in vivo
A2780 [7] = assay: Inhibition of MT-CYB expression in human A2780 cells at 100 nM incubated for 12 hrs by RNA sequencing analysis; format: functional, cell-based
A2780 [8] = assay: Induction of apoptosis in human A2780 cells assessed as late apoptotic cells at 200 nM incubated for 96 hrs by Annexin-V/FITC and PI staining based flow cytometry analysis (reference value: 3.79%); format: functional
A2780 [9] = assay: Induction of apoptosis in human A2780 cells assessed as early apoptotic cells at 50 nM incubated for 96 hrs by Annexin-V/FITC and PI staining based flow cytometry analysis (reference value: 14.14%); format: functional
A2780 [10] = assay: Inhibition of colony formation in human A2780 cells assessed as decrease in size of colonies at 10 nM incubated for 14 days by crystal violet staining based analysis; format: functional, cell-based; conditions: time 14.0 day
A2780 [11] = assay: Inhibition of MT-ND2 expression in human A2780 cells at 100 nM incubated for 12 hrs by RNA sequencing analysis; format: functional, cell-based
A2780 [12] = assay: Inhibition of mitochondrial transcript in human A2780 cells assessed as decrease in COX1 expression by RT-qPCR analysis; format: functional, cell-based
A2780 [13] = assay: Effect on POLRMT mRNA level in human A2780 cells by RT-qPCR analysis; format: functional, cell-based
A2780 [14] = assay: Inhibition of MT-ATP6 expression in human A2780 cells at 100 nM incubated for 12 hrs by RNA sequencing analysis; format: functional, cell-based
A2780 [15] = assay: Downregulation of COX1 level in human A2780 cells by Western blot analysis; format: functional, cell-based; conditions: dose <= 500.0 nM
[16] = Toxicity in Balb/c mouse assessed as effect on spleen at 100 mg/kg by H and E staining based analysis; format: organism-based; conditions: in vivo
A2780 [17] = assay: Inhibition of MT-CO3 expression in human A2780 cells at 100 nM incubated for 12 hrs by RNA sequencing analysis; format: functional, cell-based
A2780 [18] = assay: Antitumor activity against human A2780 cells xenografted in BALB/c nude mouse model assessed as induction of tumor shrinkage 100 mg/kg by H and E staining based immunohistochemical analysis; format: functional, organism-based
A2780 [19] = assay: Downregulation of NDUFB8 level in human A2780 cells by Western blot analysis; format: functional, cell-based; conditions: dose <= 500.0 nM
A2780 [20] = assay: Effect on beta-actin mRNA level in human A2780 cells by RT-qPCR analysis; format: functional, cell-based
A2780 [21] = assay: Antitumor activity against human A2780 cells xenografted in BALB/c nude mouse model assessed as reduction in COX1 level at 100 mg/kg, po by immunoblotting analysis; format: functional, organism-based
A2780 [22] = assay: Inhibition of mitochondrial transcript in human A2780 cells assessed as decrease in CYTB expression by RT-qPCR analysis; format: functional, cell-based
[23] = AUC (0 to t) in ICR mouse at 10 mg/kg, po measured upto 24 hrs by LC-MS/MS analysis; format: ADME, organism-based; set-up: dose 10 mg/kg, time < 24 hrs, route po; conditions: in vivo
A2780 [24] = assay: Antitumor activity against human A2780 cells xenografted in BALB/c nude mouse model assessed as reduction in tumor weight at 100 mg/kg, po administered daily and measured after 27 days relative to control; format: functional; set-up: scale not given: the % may be the effect or the level left; conditions: time 27 day
A2780 [25] = assay: Antitumor activity against human A2780 cells xenografted in BALB/c nude mouse model assessed as reduction in beta-actin level at 100 mg/kg, po by immunoblotting analysis; format: functional, organism-based
HeLa = assay: Antiproliferative activity against human HeLa cells incubated for 168 hrs by SRB method; format: functional, cell-based
A2780 [26] = assay: Induction of cell cycle arrest in human A2780 cells assessed as accumulation of cells at S phase at 100 nM measured after 96 hrs by PI staining based flow cytometry analysis (reference value: 14.7%); format: functional
A2780 [27] = assay: Induction of cell cycle arrest in human A2780 cells assessed as accumulation of cells at G2 phase at 50 nM measured after 96 hrs by PI staining based flow cytometry analysis (reference value: 4.49%); format: functional
Cytochrome P450 3A4 = Cytochrome P450 3A4 (Homo sapiens, UniProt P08684); assay: Inhibition of […] (unknown origin) using testosterone as substrate in presence of NADPH by LC/MS/MS analysis; format: ADME
[28] = Apparent permeability across basolateral side to apical side in human Caco-2 cells at 3 uM incubated for 2 hrs by LC-MS/MS analysis; format: ADME, cell-based
A2780 [29] = assay: Effect on cellular senescence in human A2780 cells at 0.05 to 1 uM measured after 96 hrs by beta-galactosidase staining based analysis; format: functional, cell-based; conditions: dose 0.05-1 µM
A2780 [30] = assay: Inhibition of mitochondrial transcript in human A2780 cells incubated for 12 hrs followed by compound removal and measured after 12 hrs by RT-qPCR analysis; format: functional, cell-based
[31] = Clearance in ICR mouse at 1 mg/kg, iv measured upto 24 hrs by LC-MS/MS analysis; format: ADME, organism-based; conditions: in vivo
A2780 [32] = assay: Inhibition of mitochondrial transcript in human A2780 cells assessed as decrease in ND1 expression by RT-qPCR analysis; format: functional, cell-based

Chain of Cytochrome P450 3A4 (P08684 whole entry): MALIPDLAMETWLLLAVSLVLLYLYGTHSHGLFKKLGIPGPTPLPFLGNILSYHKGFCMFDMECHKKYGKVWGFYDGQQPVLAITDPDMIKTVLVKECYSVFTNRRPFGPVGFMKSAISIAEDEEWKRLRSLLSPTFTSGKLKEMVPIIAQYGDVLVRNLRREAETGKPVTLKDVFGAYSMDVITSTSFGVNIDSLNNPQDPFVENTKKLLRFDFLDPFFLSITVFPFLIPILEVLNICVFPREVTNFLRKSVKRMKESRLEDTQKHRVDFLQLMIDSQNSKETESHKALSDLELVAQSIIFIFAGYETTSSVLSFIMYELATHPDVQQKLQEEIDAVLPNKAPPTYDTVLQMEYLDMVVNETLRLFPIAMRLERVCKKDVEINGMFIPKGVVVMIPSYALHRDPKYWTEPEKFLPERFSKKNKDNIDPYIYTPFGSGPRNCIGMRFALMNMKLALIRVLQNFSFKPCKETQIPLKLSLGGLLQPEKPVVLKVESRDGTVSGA

## Cc1ccc(-c2cc(=O)oc3cc(O[C@H](C)C(=O)N4CC5CCC(C4)N5C)ccc23)c(C)c1
A2780 [1]
  viability at 0.1 µM: 90.2%
[2]
  Activity: Non-Toxic
A2780 [3]
  inhibition: inactive
[4]
  Cmax: 369 ng/mL
A2780 [5]
  Activity: inactive
[6]
  MRT: 2.66 h
A2780 [7]
  inhibition: Active
A2780 [8]
  Activity: 4.58%
A2780 [9]
  Activity: 2.22%
A2780 [10]
  inhibition: Active
A2780 [11]
  inhibition: Active
A2780 [12]
  inhibition: Active
A2780 [13]
  Activity: inactive
A2780 [14]
  inhibition: Active
A2780 [15]
  Activity: Dose-Dependent Effect
[16]
  Activity: Non-Toxic
A2780 [17]
  inhibition: Active
A2780 [18]
  Activity: Active
A2780 [19]
  Activity: Dose-Dependent Effect
A2780 [20]
  Activity: inactive
A2780 [21]
  Activity: Active
A2780 [22]
  inhibition: Active
[23]
  AUC(0-t) at 24 h: 1830 ng·h/mL
A2780 [24]
  Activity: 68.66%
A2780 [25]
  Activity: Active
HeLa
  pIC50: 6.08
A2780 [26]
  Activity: 9.15%
A2780 [27]
  Activity: 3.7%
Cytochrome P450 3A4
  pIC50: 4.51
[28]
  Papp B→A at 2 h, 3 µM: 8.3 ×10⁻⁶ cm/s
A2780 [29]
  Activity: Active
A2780 [30]
  inhibition: inactive
[31]
  clearance: 38.2 mL/min/kg
A2780 [32]
  inhibition: Active
